Reference: the SangsterLogP compilation

Test: method code SF-AS, from PMID: 7324974
Settings: pH 5.0

**Q.** With `COC(=O)c1cnc2n(c1=O)CCCC2` as the molecule, how does the logD read?
**A.** The logD was -0.25.

**Q.** With `COC(=O)c1cnc2n(c1=O)C(C)CCC2` (centres undefined) as the molecule, how does the logD read?
**A.** The logD was 0.16.

**Q.** With `CCOC(=O)c1cnc2cc(C)ccn2c1=O` as the molecule, how does the logD read?
**A.** Its logD is 0.87.

**Q.** For `CCOC(=O)c1cnc2cccc(C)n2c1=O`, which logD is on record?
**A.** Its logD is 0.96.

**Q.** With `CC1CCC=C2N(C)C=C(C(N)=O)C(=O)N21` (centres undefined) as the molecule, how does the logD read?
**A.** The logD was 0.12.

**Q.** For `CCOC(=O)c1cnc2n(c1=O)C(C)CCC2` (centres undefined), which logD is on record?
**A.** The logD was 0.62.

**Q.** For `CCOC(=O)c1cnc2n(c1=O)CC(C)CC2` (centres undefined), which logD is on record?
**A.** The logD was 0.71.

**Q.** Which logD does the source give for `COC(=O)c1cnc2n(c1=O)C(C(C)C)CCC2` (centres undefined) here?
**A.** Its logD is 0.99.

**Q.** For `CCc1nc2cccc(C)n2c(=O)c1C`, which logD is on record?
**A.** Its logD is 1.87.

**Q.** With `CCN1C=C(C(N)=O)C(=O)N2C(C)CCCC12` (centres undefined) as the molecule, how does the logD read?
**A.** Its logD is 0.6.

**Q.** For `CCOC(=O)C1=CN(C)C2CCCC(C)N2C1=O` (centres undefined), which logD is on record?
**A.** The logD was 0.45.

**Q.** For `CCc1cccc2nc(C)cc(=O)n12`, which logD is on record?
**A.** Its logD is 1.63.

**Q.** For `CCOC(=O)c1cnc2ccccn2c1=O`, which logD is on record?
**A.** Its logD is 0.25.

**Q.** For `CC1CCCc2ncc(C(N)=O)c(=O)n21` (centres undefined), which logD is on record?
**A.** Its logD is 0.04.

**Q.** With `CCc1cc(=O)n2c(C)cccc2n1` as the molecule, how does the logD read?
**A.** The logD was 1.59.

**Q.** With `CCOC(=O)C1=CNC2CCCCN2C1=O` (centres undefined) as the molecule, how does the logD read?
**A.** Its logD is 0.57.

**Q.** With `CCOC(=O)c1cnc2n(c1=O)CCC(C)C2` (centres undefined) as the molecule, how does the logD read?
**A.** Its logD is 0.66.

**Q.** For `Cc1cc(=O)n2c(C)cccc2n1`, which logD is on record?
**A.** Its logD is 1.05.

**Q.** With `Cc1cnc2ccccn2c1=O` as the molecule, how does the logD read?
**A.** Its logD is 0.77.

**Q.** For `CCCc1nc2cccc(C)n2c(=O)c1CC`, which logD is on record?
**A.** Its logD is 2.37.

**Q.** Which logD does the source give for `CC1CCCC2NC=C(C(N)=O)C(=O)N12` (centres undefined) here?
**A.** Its logD is 0.51.

**Q.** Which logD does the source give for `CCCC1CCCc2ncc(C(=O)OC)c(=O)n21` (centres undefined) here?
**A.** Its logD is 1.14.

**Q.** With `CCOC(=O)c1cnc2n(c1=O)CCCC2` as the molecule, how does the logD read?
**A.** Its logD is 0.15.

**Q.** For `Cc1cccc2ncc(-c3ccccc3)c(=O)n12`, which logD is on record?
**A.** The logD was 2.59.

**Q.** For `CCCCC1CCCc2ncc(C(=O)OC)c(=O)n21` (centres undefined), which logD is on record?
**A.** The logD was 1.77.

**Q.** For `CCOC(=O)c1cnc2ccc(C)cn2c1=O`, which logD is on record?
**A.** Its logD is 0.9.

**Q.** For `CCOC(=O)c1cnc2c(C)cccn2c1=O`, which logD is on record?
**A.** The logD was 1.16.

**Q.** Which logD does the source give for `CC1CCCC2N(C)C=C(C(N)=O)C(=O)N12` (centres undefined) here?
**A.** Its logD is 0.22.

**Q.** Which logD does the source give for `CCOC(=O)C1=CNC2CCCC(C)N2C1=O` (centres undefined) here?
**A.** Its logD is 0.79.
